Data on five compounds can be found in patent US20230242582A1, “NOVEL ALPHA-HELICAL DOUBLE-SIDED CELL PENETRATING PEPTIDE AND USE THEREOF” (CAMP THERAPEUTICS INC., priority 2020, published 2023).

Positions of bridges follow the written chain, without caps; N, C: chain ends. Non-standard residues stand in square brackets, D forms with d. Residues, ends and D or L forms follow the SMILES beside them. Chains are numbered I, II in the order given. tBuAla = CC(C)(C)C[C@H](N)C(=O)O; hCys = N[C@@H](CCS)C(=O)O

The first data set concerns HeLa cells. Kind of data set: Cytotoxicity of dimeric peptides, WST-1 assay. The conditions noted are these: IC50 relative to LK-3, HeLa cells. It is filed as cell-based, human. How it is done: Cytotoxicity was identified using WST-1 assay by treating HeLa cells with peptides in a 96-well plate (1×10^4 cells/well) for 24 hours.
Specifically, HeLa cells were cultured in DMEM at a condition of 37° C. with 5% CO2. The cells were respectively cultured in a cell culture plate, and then removed with trypsin. The cells were seeded at 1×10^4 cells per well in a 96-well plate. After 24 hours, the peptide was added to the media, and culture was performed again at a condition of 37° C. with 5% CO2 for 24 hours. 10 uL of WST-1 reagent was added per well, and reaction was allowed to proceed for 30 minutes at a condition of 37° C. with 5% CO2. Then, UV absorbance was measured at 450/700 nm with a 96-well plate reader.
For the compound `CC(=O)N[C@@H](Cc1ccccc1)C(=O)N[C@H]1CSSC[C@@H](C(=O)N[C@@H](CCCCN)C(N)=O)NC(=O)[C@H](Cc2ccccc2)NC(=O)[C@H](CCCCN)NC(=O)[C@H](CCCCN)NC(=O)[C@H](Cc2ccccc2)NC(=O)[C@H](Cc2ccccc2)NC(=O)[C@H](CCCCN)NC(=O)[C@@H](NC(=O)[C@H](Cc2ccccc2)NC(C)=O)CSSC[C@@H](C(=O)N[C@@H](CCCCN)C(N)=O)NC(=O)[C@H](Cc2ccccc2)NC(=O)[C@H](CCCCN)NC(=O)[C@H](CCCCN)NC(=O)[C@H](Cc2ccccc2)NC(=O)[C@H](Cc2ccccc2)NC(=O)[C@H](CCCCN)NC1=O` [diFK10] (HELM PEPTIDE1{[ac].F.C.K.F.F.K.K.F.C.K.[am]}|PEPTIDE2{[ac].F.C.K.F.F.K.K.F.C.K.[am]}$PEPTIDE1,PEPTIDE2,3:R3-10:R3|PEPTIDE1,PEPTIDE2,10:R3-3:R3$$$V2.0; bridges inferred), the ratio amounted to 2.11.

Staying with this data set, now noted: even at 40 μM, data not shown.
As for “diLH10: dimer of monomer LH10, AC-LCHLLHHLCH-NH2 (SEQ ID NO 14) (Ac-LCHLLHHLCH-NH2; also: dimer of two monomers linked by interchain disulfide bonds)”, the toxicity entry is recorded as “no toxicity was observed”.

The test system of another data set is HeLa cells. Kind of data set: Cell-penetrating ability of fluorescently labeled dimeric peptides, flow cytometry. In kind it is cell-based, human. The settings on record: HeLa cells, flow cytometry, FIG. 4. The method, then: During preparation of CPPs in dimeric form shown in Tables 1 to 3, one monomer thereof was prepared in a form where 5-TAMRA fluorescence was attached to the N-terminus, instead of acetyl. A monomer with acetyl and a monomer with 5-TAMRA fluorescence were mixed in a molar ratio of 1:1, and subjected to an oxidation condition in air to produce a dimeric form in which only one fluorescence was labeled per dimer molecule. Then, cell-penetrating ability of each dimer was identified. Each fluorescently labeled peptide was used to treat HeLa cells (5×10^4 cells/well), which are human-derived cells, and a ratio of the number of cells with fluorescence to the total number of cells was obtained through flow cytometry.
FIGS. 4B to 4D illustrate results obtained by treating cells with respective dimers at the same concentration (62.5 nM), measuring fluorescence intensity of the cells by flow cytometry, and relatively comparing the fluorescence intensity.
Based on cell-penetrating ability and cytotoxicity of the dimeric peptides of the present disclosure, correlation therebetween was identified. Cytotoxicity (IC50^−1) and cell-penetrating ability of the respective peptides were identified at 62.5 nM according to the methods described in Examples 5 and 6, and then graphically represented.
Consider “diLR10^C9Hcy: dimer of monomer LR10^C9Hcy, Ac-LCRLLRRLHcyR-NH2 (SEQ ID NO 43) (Ac-LCRLLRRL[hCys]R-NH2; also: dimer linked by intermolecular disulfides)”, for which the cell-penetrating ability entry is “best results”.

The same data set, now with this note: at 62.5 nM, FIG. 6A.
As for `CC(=O)N[C@@H](CC(C)(C)C)C(=O)N[C@H]1CSSC[C@@H](C(=O)N[C@@H](CCCNC(=N)N)C(N)=O)NC(=O)[C@H](CC(C)(C)C)NC(=O)[C@H](CCCNC(=N)N)NC(=O)[C@H](CCCNC(=N)N)NC(=O)[C@H](CC(C)(C)C)NC(=O)[C@H](CC(C)(C)C)NC(=O)[C@H](CCCNC(=N)N)NC(=O)[C@@H](NC(=O)[C@H](CC(C)(C)C)NC(C)=O)CSSC[C@@H](C(=O)N[C@@H](CCCNC(=N)N)C(N)=O)NC(=O)[C@H](CC(C)(C)C)NC(=O)[C@H](CCCNC(=N)N)NC(=O)[C@H](CCCNC(=N)N)NC(=O)[C@H](CC(C)(C)C)NC(=O)[C@H](CC(C)(C)C)NC(=O)[C@H](CCCNC(=N)N)NC1=O` [diNpgR10] (I: Ac-[tBuAla]CR[tBuAla][tBuAla]RR[tBuAla]CR-NH2 / II: Ac-[tBuAla]CR[tBuAla][tBuAla]RR[tBuAla]CR-NH2; disulfide I:2-II:9, I:9-II:2 (inferred)), the “ratio of cell-penetrating ability to cytotoxicity (IC50^−1)” value was “low toxicity as compared with cell-penetrating ability”.
As to `CC(=O)N[C@@H](CC(C)(C)C)C(=O)N[C@H]1CSSC[C@@H](C(=O)N[C@@H](CCCCN)C(N)=O)NC(=O)[C@H](CC(C)(C)C)NC(=O)[C@H](CCCCN)NC(=O)[C@H](CCCCN)NC(=O)[C@H](CC(C)(C)C)NC(=O)[C@H](CC(C)(C)C)NC(=O)[C@H](CCCCN)NC(=O)[C@@H](NC(=O)[C@H](CC(C)(C)C)NC(C)=O)CSSC[C@@H](C(=O)N[C@@H](CCCCN)C(N)=O)NC(=O)[C@H](CC(C)(C)C)NC(=O)[C@H](CCCCN)NC(=O)[C@H](CCCCN)NC(=O)[C@H](CC(C)(C)C)NC(=O)[C@H](CC(C)(C)C)NC(=O)[C@H](CCCCN)NC1=O` [diNpgK10] (I: Ac-[tBuAla]CK[tBuAla][tBuAla]KK[tBuAla]CK-NH2 / II: Ac-[tBuAla]CK[tBuAla][tBuAla]KK[tBuAla]CK-NH2; disulfide I:2-II:9, I:9-II:2 (inferred)), the “ratio of cell-penetrating ability to cytotoxicity (IC50^−1)” value is “low toxicity as compared with cell-penetrating ability”.
